Data: patent US20020091158A1, “Composition for and method of treatment using triterpenoids” (priority 1999, published 2002)
Like-named read-outs stand apart in the source and are kept apart here.

Experiments:
[1] = cited from earlier work
BJAB cells = assay: Effect on BJAB cells growth curve (KSHV negative control cells); type: cell-based, human; conditions: six days, 2 mM and 4 mM in alcohol 0.5% and 1%
Experimental: (§1) The Glycyrrhizic acid (as ammonium salt supplied by Sigma) is dissolved in 25% of ethanol at 100 mM and adjusted to pH 6.8 with 1 N sodium hydroxide. The maximum inhibition activity with no effect on cell cycle is achieved with 4 mM, the dose-dependent range is within 2mM to 5mM.
(§2) BJA-B is an Epstein-Barr virus (EBV)-negative lymphoblastoid cell line established from an African Burkift's lymphoma, KSHV negative cell line. See Menezes J, et al, Establishment and characterization of an Epstein-Barr virus (EBV)-negative lymphoblastoid B cell line (BJA-B) from an exceptional, EBV-genome-negative African Burkitt's lymphoma. Biomedicine 1975 Jul; 22 (4): 276-84. These cells are used as controls. Cells are cultured at concentration of 4×10^5/ml in RPMI with 20% of fetal calf serum in the presence or absence of different drug concentrations.
Cells are treated for six days with alcohol 0.5% and 1%, Glycyrrhizic acid 2 mM and 4 mM in alcohol 0.5% and 1% respectively. Glycyrrhizic acid has no effect on the cells proliferation.

BC-3 cells = assay: Effect on BC-3 cells growth curve (latently KSHV-infected); type: cell-based, human
Experimental: as §1
BC-3 is a cell line established from a HIV negative patient with a primary effusion lymphoma. See Arvanitakis L, et al Establishment and characterization of a primary effusion (body cavity-based) lymphoma cell line (BC-3) harboring Kaposi's sarcoma-associated herpesvirus (KSHV/HHV-8) in the absence of Epstein-Barr virus. Blood 88:2648-2654, 1996. The cells are latently KSHV-infected, but lacks EBV, and can be induced to enter lytic replication and viral production by treatment with TPA or with butyrate. BC-3 has an intact KSHV genome and is suitable for the isolation and study of KSHV.
as §2
The cells are treated for six days with alcohol 0.5% and 1%, Glycyrrhizic acid 2 mM and 4 mM in alcohol 0.5% and 1% respectively. Cells growth is 50% inhibited by Glycyrrhizic acid 2 mM, while treatment with Glycyrrhizic acid 4 mM determines cell death.

BC-1 cells = assay: Effect on BC-1 cells growth curve (KSHV/EBV-infected); type: cell-based, human; conditions: 6 days
Experimental: as §1
(§3) BC-1 and BC-2 are cell lines established from two different HIV positive patients with non-Hodgkins lymphoma, specifically body cavity-based lymphomas. The cells are KSHV/EBV-infected and can be induced to enter lytic replication and viral production by treatment with TPA or with butyrate. These cells have an intact KSHV and EBV genomes and are ideal for KSHV and EBV isolation and study.(Cesarman, E. et al., Blood 1995 Oct.;86(7):2708-14.
(§4) The cells are treated for six days with alcohol 1%, glycyrrhizic acid 2 mM […], glycyrrhizic acid 3 mM and 4 mM in alcohol 0.5%, 0.75% and 1% respectively. After 6 days treatment cells growth decreased 50% using glycyrrhizic acid 2 mM and glycyrrhizic acid 3 mM. Cells growth decreased 80% using glycyrrhizic acid 4 mM.

BC-2 cells = assay: Effect on BC-2 cells growth curve (KSHV/EBV-infected); type: cell-based, human; conditions: 6 days
Experimental: as §1, §3, §4

[2] = system: KSHV cyclin, v-FLIP and LANA (orf 73) genes; assay: Northern blot of viral latent genes transcription in BC-3 cells; type: cell-based, Kaposi's sarcoma-associated herpesvirus (KSHV); conditions: for effect on the viral latent genes transcription: BC-3 cells, six days
Experimental: (§5) Total RNA was extracted using RNAzol B (Tel-Test Inc., Friendswood, Tex.) according to the manufacturer's instructions, and Poly A+RNA was selected with Poly A+ Tract kit (Promega, Madison, Wis.). To eliminate any contaminating DNA, the RNA samples were treated with 2 U RNAse free DNAse (Promega).
(§6) For Northern blot analysis, […] of each mRNA sample was electrophoresed in 1.5% formaldehyde agarose gel and then transferred to a Gene Screen nylon membrane (Du Pont, Boston, Mass.) overnight with 20×SSC. Filters were UV-cross-linked to fix the RNA and hybridized at 42° C. with probes obtained by PCR amplification of KSHV cyclin, v-FLIP and LANA (orf 73) genes (20) and labeled by ^32P random priming (Amersham Life Science, Buckinghamshire, England). Human β-actin probe was used as a quantitative control to measure the total mRNA. Membranes were washed twice at room temperature and twice at 65° C. then exposed.
(§7) On the left side are indicated the probes used. On the right side are indicated the size of the transcripts. All probes correspond to viral latent genes, except the human b actin which is used as a quantitative control to measure the transcription of total cellular mRNA.
(§8) Lane 6 is the positive control.

Human β-actin = assay: Northern blot of β-actin as control for total cellular mRNA transcription; type: cell-based
Experimental: as §5, §6, §7, §8

KSHV latent antigens = assay: Immunofluorescence assay of BC-3 cells for latent KSHV antigens; type: cell-based, Kaposi's sarcoma-associated herpesvirus (KSHV); conditions: 4 mM, stained with KS patient serum (panel C)
Experimental: Secondary antibody FITC-conjugated F(ab′)2 fragment of rabbit antihuman IgG (DAKO, Carpinteria, Calif.) diluted 1:40 in MB was applied. Cell nuclei were counterstained for 5 min, in PBS containing 17 μM Dapi (4′-6′-diamino-2′-phenyidole dihydrochloride [Boehringer Mannheim Corp., Indianapolis, Ind.]), rinsed in TBST, mounted with Vectashield (Vector Lab. Inc., Burlingame, Calif.) and examined in a fluorescence microscope Axioplan2 (Zeiss, Germany). BC-3 cells were run in parallel as controls.
In panel C the BC-3 cells have been treated with glycyrrhizic acid 4 mM and stained with KS patient serum. In panel D BC-3 cells have been treated with glycyrrhizic acid 4 mM and stained with Dapi to localize the nuclei. Kaposi's Sarcoma patient serum is used primary antibody to stain the KSHV latent antigens.

Compound	solubility ([1]; ammonia water, ethanol, glacial acetic acid)	effect on the cells proliferation (BJAB cells)	effect on cells growth (BC-3 cells; BC-3 cells, six days, 4 mM)	inhibition at 2000 µM (BC-3 cells; Homo sapiens, 144 h, BC-3 cells, six days, 2 mM, read-out: cells growth inhibited) [%]	KSHV infected cells killed (BC-3 cells; six days after treatment)	cells growth decreased (BC-1 cells; 2 mM) [%]	cells growth decreased (BC-1 cells; 3 mM) [%]	cells growth decreased (BC-1 cells; 4 mM) [%]	cells growth decreased (BC-2 cells; 2 mM) [%]	cells growth decreased (BC-2 cells; 3 mM) [%]	cells growth decreased (BC-2 cells; 4 mM) [%]	concentration of maximum inhibition activity with no effect on cell cycle [2] [mM]	effect on the viral latent genes transcription ([2]; 2 mM (lane 7))	effect on the viral latent genes transcription ([2]; 4 mM (lane 8))	transcription of total cellular mRNA (b actin) (Human β-actin; BJA-B cells, six days, 2 mM and 4 mM (lanes 1-5))	effect on cellular mRNA (β actin) (Human β-actin; all samples, BJA-B and BC-3)	expression of latent viral antigens (KSHV latent antigens)	solubility ([1]; hot water and alcohol)
CC1(C(=O)O)CCC2(C)CCC3(C)C(=CC(=O)C4C5(C)CCC(OC6OC(C(=O)O)C(O)C(O)C6OC6OC(C(=O)O)C(O)C(O)C6O)C(C)(C)C5CCC43C)C2C1.N.O.O.O.O.O (stereo not drawn) [Ammonium glycyrrhizinate pentahydrate]	soluble	–	–	–	–	–	–	–	–	–	–	–	–	–	–	–	–	–
CC1(C)[C@@H](O[C@H]2O[C@H](C(=O)O)[C@@H](O)[C@H](O)[C@H]2O[C@@H]2O[C@H](C(=O)O)[C@@H](O)[C@H](O)[C@H]2O)CC[C@]2(C)[C@H]3C(=O)C=C4[C@@H]5C[C@@](C)(C(=O)O)CC[C@]5(C)CC[C@@]4(C)[C@]3(C)CC[C@@H]12 [Glycyrrhizic acid]	–	no effect	cell death	50	completely killed	50	50	80	50	50	80	4	does not show any effect	almost totally inhibited	not inhibited	does not have any effect	inhibits the expression of latent viral antigens	freely soluble
